Source: US20080114041A1, “Benzothiazolesulfonamides” (AstraZeneca AB, priority 2004, published 2008)

Target: T1, hVR1 (Homo sapiens, UniProt Q8NER1)
T1 construct: expressed in transfected cells
Experiment: hVR1 FLIPR (Fluorometric Image Plate Reader) screening assay
Assay type: cell-based
Conditions: transfected CHO cells stably expressing hVR1; inhibition of calcium increase after agonist (50 nM capsaicin or MES buffer pH 5.2); agonist not given
Experimental: 1. hVR1 FLIPR (Fluorometric Image Plate Reader) Screening Assay
Transfected CHO cells, stably expessing hVR1 (15,000 cells/well) are seeded in 50 ul media in a black clear bottom 384 plate (Greiner) and grown in a humidified incubator (37° C., 2% CO2), 24-30 hours prior to experiment.
Subsequently, the media is removed from the cell plate by inversion and 2 μM Fluo-4 is added using a multidrop (Labsystems). Following the 40 minutes dye incubation in the dark at 37° C. and 2% CO2, the extracellular dye present is washed away using an EMBLA (Scatron), leaving the cells in 40 ul of assay buffer (1×HBSS, 10 mM D-Glucose, 1 mM CaCl2, 10 mM HEPES, 10×7.5% NaHCO3 and 2.5 mM Probenecid).
FLIPR Assay—IC50 Determination Protocol
For IC50 determinations the fluorescence is read using FLIPR filter 1 (em […]). A cellular baseline recording is taken for 30 seconds, followed by a 20 μl addition of 10, titrated half-log concentrations of the test compound, yielding cellular concentration ranging from 3 μM to 0.1 nM. […] This consequently leading to a reduction in fluorescence signal and providing a reduced fluorescence reading, compared with no compound, buffer controls. Data is exported by the FLIPR program as a sum of fluorescence calculated under the curve upon the addition of capsaicin. […]

T1 sequence (Q8NER1 whole entry): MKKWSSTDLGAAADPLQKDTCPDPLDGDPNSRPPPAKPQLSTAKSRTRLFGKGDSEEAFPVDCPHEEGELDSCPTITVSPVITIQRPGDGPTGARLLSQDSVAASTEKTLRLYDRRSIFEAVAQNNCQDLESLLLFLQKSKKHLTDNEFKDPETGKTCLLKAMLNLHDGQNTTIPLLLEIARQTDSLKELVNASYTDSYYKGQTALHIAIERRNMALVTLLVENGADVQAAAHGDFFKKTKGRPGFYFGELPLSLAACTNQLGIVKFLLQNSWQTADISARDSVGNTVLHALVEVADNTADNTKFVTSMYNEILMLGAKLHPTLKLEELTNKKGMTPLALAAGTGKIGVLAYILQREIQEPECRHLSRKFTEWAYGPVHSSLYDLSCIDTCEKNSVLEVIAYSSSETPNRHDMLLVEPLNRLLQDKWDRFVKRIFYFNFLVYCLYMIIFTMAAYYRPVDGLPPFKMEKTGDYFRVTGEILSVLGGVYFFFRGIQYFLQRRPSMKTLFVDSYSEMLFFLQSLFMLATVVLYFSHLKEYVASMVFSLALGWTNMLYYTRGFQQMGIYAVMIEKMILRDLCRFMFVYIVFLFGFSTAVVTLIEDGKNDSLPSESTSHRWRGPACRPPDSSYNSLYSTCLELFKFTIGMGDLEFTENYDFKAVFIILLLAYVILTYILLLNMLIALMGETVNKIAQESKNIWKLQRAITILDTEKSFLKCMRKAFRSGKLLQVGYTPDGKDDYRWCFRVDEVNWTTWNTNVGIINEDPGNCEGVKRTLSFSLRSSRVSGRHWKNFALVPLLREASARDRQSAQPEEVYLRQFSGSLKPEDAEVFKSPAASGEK

- IC50: 2870 nM
Compound: O=S(=O)(NCc1cccc(C(F)(F)F)c1)c1ccc2sc(CO)nc2c1 [Compound 5, 2-(hydroxymethyl)-N-[3-(trifluoromethyl)benzyl]-1,3-benzothiazole-5-sulfonamide]
